{"source": "PubChem BioAssay AID1745844", "about": "(Carcinogenic Potency Database (CPDB), 2022)", "system": "rodent lifetime carcinogenesis bioassay, tumor incidence TD50", "test": "carcinogenic potency in animals, long-term in vivo studies, CPDB compilation (AID 1745844)", "note": "Activity calls are given as the source filed them. No rule for the calls is given here.", "data": [{"compound": "C#C[C@]1(OC(C)=O)CC[C@H]2[C@@H]3CCC4=CC(=O)CC[C@@H]4[C@H]3CC[C@@]21C", "note": "(tested in a mixture with another compound)", "values": [{"measurement": "carcinogen call", "setting": "monkey, strain Rhesus [Macaca mulatta], females, in feed, site: pancreatic duct, lesion: adenoma, dosed 391 weeks, study length 521 weeks", "result": "negative (inactive)"}, {"measurement": "TD50", "setting": "monkey, strain Rhesus [Macaca mulatta], females, in feed, site: skin, lesion: papilloma, dosed 391 weeks, study length 521 weeks", "result": "10.1 mg/kg/day (inactive)"}, {"measurement": "TD50", "setting": "monkey, strain Rhesus [Macaca mulatta], females, in feed, site: uterus, lesion: leiomyoma, dosed 391 weeks, study length 521 weeks", "result": "6.42 mg/kg/day (inactive)"}, {"measurement": "carcinogen call", "setting": "mouse, strain C57L/He x 129/Rr x C3HeB/De x SWR/Ly, females, by gavage, site: any site (literature study), lesion: several types, types named in the paper, dosed 69 weeks, study length 69 weeks", "result": "negative (inactive)"}, {"measurement": "carcinogen call", "setting": "mouse, strain C57L/He x 129/Rr x C3HeB/De x SWR/Ly, females, by gavage, site: any site (literature study), lesion: several types, types named in the paper, dosed 69 weeks, study length 82 weeks", "result": "negative (inactive)"}, {"measurement": "carcinogen call", "setting": "mouse, strain C57L/He x 129/Rr x C3HeB/De x SWR/Ly, females, by gavage, site: lung, lesion: one or several types, types not named, dosed 69 weeks, study length 69 weeks", "result": "negative (inactive)"}, {"measurement": "TD50", "setting": "mouse, strain C57L, females, by gavage, site: pituitary gland, lesion: one or several types, types not named, dosed 89 weeks, study length 89 weeks", "result": 1.34, "unit": "mg/kg/day"}, {"measurement": "TD50", "setting": "rat, strain Sprague-Dawley albino, both sexes, in feed, site: any site (literature study), lesion: several types, types named in the paper, dosed 104 weeks, study length 104 weeks", "result": 14.2, "unit": "mg/kg/day"}, {"measurement": "TD50", "setting": "rat, strain Sprague-Dawley albino, both sexes, in feed, site: liver, lesion: hepatocellular adenoma, dosed 104 weeks, study length 104 weeks", "result": 7.59, "unit": "mg/kg/day"}, {"measurement": "TD50", "setting": "rat, strain Sprague-Dawley albino, both sexes, in feed, site: liver, lesion: hyperplastic nodule, dosed 104 weeks, study length 104 weeks", "result": 1.94, "unit": "mg/kg/day"}, {"measurement": "TD50", "setting": "rat, strain Sprague-Dawley albino, both sexes, in feed, site: mammary gland, lesion: adenocarcinoma, dosed 104 weeks, study length 104 weeks", "result": 76.8, "unit": "mg/kg/day"}, {"measurement": "TD50", "setting": "rat, strain Sprague-Dawley albino, both sexes, in feed, site: mammary gland, lesion: adenoma, dosed 104 weeks, study length 104 weeks", "result": 14.8, "unit": "mg/kg/day"}, {"measurement": "TD50", "setting": "rat, strain Sprague-Dawley albino, both sexes, in feed, site: mammary gland, lesion: fibroepithelial tumor, dosed 104 weeks, study length 104 weeks", "result": 21, "unit": "mg/kg/day"}, {"measurement": "TD50", "setting": "rat, strain Sprague-Dawley albino, both sexes, in feed, site: mammary gland, lesion: several types, types named in the paper, dosed 104 weeks, study length 104 weeks", "result": 6.66, "unit": "mg/kg/day"}, {"measurement": "TD50", "setting": "rat, strain Sprague-Dawley albino, both sexes, in feed, site: pituitary gland, lesion: chromophobe adenoma, dosed 104 weeks, study length 104 weeks", "result": 5.31, "unit": "mg/kg/day"}, {"measurement": "TD50", "setting": "rat, strain Sprague-Dawley albino, both sexes, in feed, site: uterus, lesion: adenomatous endometrial polyp, dosed 104 weeks, study length 104 weeks", "result": 27.4, "unit": "mg/kg/day"}]}, {"compound": "CC(=O)Nc1ccc(OCC(O)CNC(C)C)cc1", "note": "(configuration not stated)", "values": [{"measurement": "carcinogen call", "setting": "mouse, strain AP Alderly Park, females, several routes, site: liver, lesion: one or several types, types not named, dosed 78 weeks, study length 78 weeks", "result": "negative (inactive)"}, {"measurement": "carcinogen call", "setting": "mouse, strain AP Alderly Park, females, several routes, site: lung, lesion: one or several types, types not named, dosed 78 weeks, study length 78 weeks", "result": "negative (inactive)"}, {"measurement": "TD50", "setting": "mouse, strain AP Alderly Park, males, several routes, site: liver, lesion: one or several types, types not named, dosed 78 weeks, study length 78 weeks", "result": "24300 mg/kg/day (inactive)"}, {"measurement": "TD50", "setting": "mouse, strain AP Alderly Park, males, several routes, site: lung, lesion: one or several types, types not named, dosed 78 weeks, study length 78 weeks", "result": "383 mg/kg/day (inactive)"}, {"measurement": "carcinogen call", "setting": "rat, strain Alpk:APfSD, females, in feed, site: liver, lesion: one or several types, types not named, dosed 104 weeks, study length 104 weeks", "result": "negative (inactive)"}, {"measurement": "carcinogen call", "setting": "rat, strain Alpk:APfSD, males, in feed, site: liver, lesion: one or several types, types not named, dosed 104 weeks, study length 104 weeks", "result": "negative (inactive)"}, {"measurement": "TD50", "setting": "rat, strain Alpk:APfSD, males, in feed, site: pituitary gland, lesion: one or several types, types not named, dosed 104 weeks, study length 104 weeks", "result": "23.9 mg/kg/day (inactive)"}, {"measurement": "TD50", "setting": "rat, strain Alpk:APfSD, males, in feed, site: testis, lesion: one or several types, types not named, dosed 104 weeks, study length 104 weeks", "result": "194 mg/kg/day (inactive)"}]}, {"compound": "O=[N+]([O-])c1ccc2ncccc2c1", "values": [{"measurement": "carcinogen call", "setting": "rat, strain Fischer 344, females, in feed, site: liver, lesion: hyperplastic nodule, dosed 104 weeks, study length 104 weeks", "result": "negative (inactive)"}, {"measurement": "TD50", "setting": "rat, strain Fischer 344, males, in feed, site: liver, lesion: hyperplastic nodule, dosed 104 weeks, study length 104 weeks", "result": "267 mg/kg/day (inactive)"}]}, {"compound": "OCCBr", "values": [{"measurement": "TD50", "setting": "mouse, strain B6C3F1, females, in drinking water, site: any site (literature study), lesion: several types, types named in the paper, dosed 79 weeks, study length 79 weeks", "result": 73.2, "unit": "mg/kg/day"}, {"measurement": "TD50", "setting": "mouse, strain B6C3F1, females, in drinking water, site: forestomach, lesion: squamous-cell papilloma, dosed 79 weeks, study length 79 weeks", "result": 69.7, "unit": "mg/kg/day"}, {"measurement": "TD50", "setting": "mouse, strain B6C3F1, females, in drinking water, site: liver, lesion: hemangioma, dosed 79 weeks, study length 79 weeks", "result": 800, "unit": "mg/kg/day"}, {"measurement": "TD50", "setting": "mouse, strain B6C3F1, females, in drinking water, site: lung, lesion: papillary tumor, dosed 79 weeks, study length 79 weeks", "result": 1890, "unit": "mg/kg/day"}, {"measurement": "TD50", "setting": "mouse, strain B6C3F1, males, in drinking water, site: any site (literature study), lesion: several types, types named in the paper, dosed 78 weeks, study length 78 weeks", "result": 86.6, "unit": "mg/kg/day"}, {"measurement": "TD50", "setting": "mouse, strain B6C3F1, males, in drinking water, site: forestomach, lesion: squamous-cell papilloma, dosed 78 weeks, study length 78 weeks", "result": 83.9, "unit": "mg/kg/day"}]}, {"compound": "ClC1C2(Cl)C3C4C5OC5C5C4C1(Cl)C(Cl)(C53)C2(Cl)Cl", "note": "(configuration not stated)", "values": [{"measurement": "TD50", "setting": "mouse, strain B6C3F1, females, in feed, site: any site (literature study), lesion: several types, types named in the paper, dosed 80 weeks, study length 92 weeks", "result": "0.743 mg/kg/day (inactive)"}, {"measurement": "TD50", "setting": "mouse, strain B6C3F1, females, in feed, site: liver, lesion: hepatocellular adenoma + hepatocellular carcinoma + neoplastic nodule, dosed 80 weeks, study length 92 weeks", "result": 2.53, "unit": "mg/kg/day"}, {"measurement": "TD50", "setting": "mouse, strain B6C3F1, females, in feed, site: lung, lesion: alveolar/bronchiolar adenoma + alveolar/bronchiolar carcinoma, dosed 80 weeks, study length 92 weeks", "result": 6.78, "unit": "mg/kg/day"}, {"measurement": "TD50", "setting": "mouse, strain B6C3F1, males, in feed, site: any site (literature study), lesion: several types, types named in the paper, dosed 80 weeks, study length 93 weeks", "result": "0.494 mg/kg/day (inactive)"}, {"measurement": "TD50", "setting": "mouse, strain B6C3F1, males, in feed, site: liver, lesion: hepatocellular adenoma + hepatocellular carcinoma + neoplastic nodule, dosed 80 weeks, study length 93 weeks", "result": 1.96, "unit": "mg/kg/day"}, {"measurement": "TD50", "setting": "mouse, strain B6C3F1, males, in feed, site: lung, lesion: alveolar/bronchiolar adenoma + alveolar/bronchiolar carcinoma, dosed 80 weeks, study length 93 weeks", "result": 0.465, "unit": "mg/kg/day"}, {"measurement": "TD50", "setting": "rat, strain Osborne-Mendel, females, in feed, site: any site (literature study), lesion: several types, types named in the paper, dosed 69 weeks, study length 111 weeks", "result": 0.327, "unit": "mg/kg/day"}, {"measurement": "TD50", "setting": "rat, strain Osborne-Mendel, females, in feed, site: mammary gland, lesion: adenoma + fibroadenoma, dosed 69 weeks, study length 111 weeks", "result": "0.612 mg/kg/day (inactive)"}, {"measurement": "TD50", "setting": "rat, strain Osborne-Mendel, males, in feed, site: all sites, lesion: hemangioma, dosed 80 weeks, study length 109 weeks", "result": "2.89 mg/kg/day (inactive)"}, {"measurement": "carcinogen call", "setting": "rat, strain Osborne-Mendel, males, in feed, site: any site (literature study), lesion: several types, types named in the paper, dosed 80 weeks, study length 111 weeks", "result": "negative (inactive)"}, {"measurement": "TD50", "setting": "rat, strain Osborne-Mendel, males, in feed, site: liver, lesion: hepatocellular adenoma + hepatocellular carcinoma + neoplastic nodule, dosed 80 weeks, study length 111 weeks", "result": 7.72, "unit": "mg/kg/day"}]}, {"compound": "C=CCNN", "values": [{"measurement": "TD50", "setting": "mouse, strain Swiss albino, females, in drinking water, site: blood vessels, lesion: angioma, dosed 105 weeks, study length 105 weeks", "result": 163, "unit": "mg/kg/day"}, {"measurement": "TD50", "setting": "mouse, strain Swiss albino, females, in drinking water, site: blood vessels, lesion: several types, types named in the paper, dosed 105 weeks, study length 105 weeks", "result": 119, "unit": "mg/kg/day"}, {"measurement": "TD50", "setting": "mouse, strain Swiss albino, females, in drinking water, site: liver, lesion: several types, types named in the paper, dosed 105 weeks, study length 105 weeks", "result": 234, "unit": "mg/kg/day"}, {"measurement": "TD50", "setting": "mouse, strain Swiss albino, females, in drinking water, site: lung, lesion: adenocarcinoma, dosed 105 weeks, study length 105 weeks", "result": 96, "unit": "mg/kg/day"}, {"measurement": "TD50", "setting": "mouse, strain Swiss albino, females, in drinking water, site: lung, lesion: adenoma, dosed 105 weeks, study length 105 weeks", "result": 46.1, "unit": "mg/kg/day"}, {"measurement": "TD50", "setting": "mouse, strain Swiss albino, females, in drinking water, site: lung, lesion: several types, types named in the paper, dosed 105 weeks, study length 105 weeks", "result": 38.4, "unit": "mg/kg/day"}, {"measurement": "TD50", "setting": "mouse, strain Swiss albino, males, in drinking water, site: liver, lesion: hepatoma, dosed 93 weeks, study length 93 weeks", "result": "274 mg/kg/day (inactive)"}, {"measurement": "TD50", "setting": "mouse, strain Swiss albino, males, in drinking water, site: lung, lesion: adenoma, dosed 93 weeks, study length 93 weeks", "result": 28.9, "unit": "mg/kg/day"}, {"measurement": "TD50", "setting": "mouse, strain Swiss albino, males, in drinking water, site: lung, lesion: several types, types named in the paper, dosed 93 weeks, study length 93 weeks", "result": 30.9, "unit": "mg/kg/day"}]}]}
